We go through 6 molecules from patent publication US4605785A, “1,1-diphenylpropanol derivatives, process for their preparation and pharmaceutical compositions containing them” (Richter Gedeon Vegyeszeti Gyar RT, priority 1982, dated 1986).

One data set concerns hexabarbital oxidase. The experiment in a line: Hexabarbital sleeping time (hexabarbital oxidase activity in vivo). On the set-up: species or system Hann.-Wistar rats. To be noted: hexabarbital sodium 60 mg./kg. i.v., x ± S.E.; for Hexabarbital sleeping time in %-age of the control, 1 h: 1 h after single 40 mg./kg. oral dose; for Hexabarbital sleeping time in %-age of the control, 24 h: 24 h after single 40 mg./kg. oral dose. The procedure:
The enzyme inducing activity was tested by the following methods: The change of hexabarbital oxidase activity was measured on Hann.-Wistar rats weighing 50-60 g. which were administered single 40 mg./kg. doses of the test compounds orally. One and 24 hours after treatment the animals were anaesthetized by a 60 mg./kg. i.v. dose of hexabarbital sodium, and the sleeping time, i.e. the time between the loss of righting reflex and full awakeness was measured (Noordhoex J.: Eur. J. Pharmacol., 3, 242, 1968). As a reference compound phenobarbital was used. The average of the groups and the standard error were determined. The results are given in Table 1, expressed in % of the control.

A short description of data set [1]: Relative weight of liver after treatment. It is filed as in vivo, Female Hann.-Wistar rats. The settings on record: 24 h after single 40 mg/kg. oral dose; control 4.3 ± 0.17 = 100 ± 3.9%. The procedure:
(§1) To evaluate the enzyme inducing activity of the compounds of formula (I) the activity of the polysubstrate monooxygenase enzyme system of the liver, after treatment with placebo and the test compounds, respectively, was also tested. Female Hann.-Wistar rats weighing 50-60 g. each were administered a single 40 mg/kg. dose of the test compounds orally. 24 hours after treatment the animals were decapitated and their livers were eliminated. […] The cytochrome P-450 concentration was determined on the basis of the carbon monoxide differential spectrum of a reduced microsome suspension (Omura T. et al.: J. Biol. Chem. 239, 2370 (1964)). The quantity of cytochrome b-5 was determined from a NaDH differential spectrum (Raw J. et al.: J. Biol. Chem., 234, 1867 (1959)); the activity of NADPH: ferricytochrome C (P-450) reductase (E.C. 1.6.2.4) was measured by the method of Williams C. […] The activity of the aniline hydroxylase from the velocity of the p-amino-phenol formation was determined by the method of R. S. et al.: Toxicol. […] Pharmacol., 22, 50 (1972), while the aminopyrine-demethylase activity was measured by the quantity of the formaldehyde formed, using the method developed by Gourlay G. K. et al.: Biochem. Pharmacol., 27, 965 (1978). The protein content was determined using the method by Lowry O. H. et al.: J. Biochem., 193, 265 (1951). […]

The nature of data set [2]: Microsomal protein content of liver after treatment (Lowry). It is filed as in vivo, Female Hann.-Wistar rats. To be noted: 24 h after single 40 mg/kg. oral dose; control 29.3 ± 1.01 = 100 ± 3.4%. As to the method: as §1
A further data set concerns cytochrome b-5. In words: Quantity of cytochrome b-5 in liver after treatment. Format: in vivo, Female Hann.-Wistar rats. The settings on record: 24 h after single 40 mg/kg. oral dose; control 8.6 ± 0.43 = 100 ± 5.0%. As to the method:
as §1

The test system of a further data set is cytochrome P-450. The experiment in a line: Cytochrome P-450 concentration in liver after treatment. Format: in vivo, Female Hann.-Wistar rats. The settings on record: 24 h after single 40 mg/kg. oral dose; control 12.8 ± 0.63 = 100 ± 4.9%. As to the method: as §1
Data set [3] deals with NADPH: ferricytochrome C (P-450) reductase (E.C. 1.6.2.4). The experiment in a line: Activity of NADPH: ferricytochrome C (P-450) reductase in liver after treatment. Format: in vivo, Female Hann.-Wistar rats. To be noted: 24 h after single 40 mg/kg. oral dose; control 4868 ± 296.2 = 100 ± 6.1%. As to the method: as §1
The test system of the next data set is aniline hydroxylase. The experiment in a line: Aniline hydroxylase activity in liver after treatment. Format: in vivo, Female Hann.-Wistar rats. To be noted: 24 h after single 40 mg/kg. oral dose; control 20.3 ± 0.88 = 100 ± 4.3%. The procedure:
as §1

The subject of the next data set is aminopyrine demethylase. The experiment in a line: Aminopyrine demethylase activity in liver after treatment. Format: in vivo, Female Hann.-Wistar rats. The settings on record: 24 h after single 40 mg/kg. oral dose; control 254.8 ± 7.47 = 100 ± 2.9%. As to the method: as §1
The next data set deals with Hann.-Wistar rats. The experiment in a line: Acute toxicity, oral. Format: in vivo. To be noted: 500 mg./kg. p.o. single dose; 14 days observation. The procedure:
(§2) The acute toxicity of the compounds of formula (I) was determined on Hann.-Wistar rats selected from both sexes, weighing 160-180 g. each. The test compounds were administered in a single 500 mg./kg. oral dose. […] The results are set forth in the following Table 3, in which the percentage of the dead animals is indicated.

The nature of the next data set: Acute toxicity, oral. To be noted: rat, in vivo, po. It is filed as in vivo, Hann.-Wistar rats. The procedure: as §2
Data set [4] can be described thus: CNS activity (electroshock, metrazole, thiosemicarbazide, strichnine, nicotine spasm, rotating rod, physostigmine lethality, yohimbine potentiation, analgesia). The settings on record: oral, already at 40 mg./kg.; in words.
Description: The compounds of the formula (I) and phenobarbital were administered orally, in a dose of 40 mg./kg. and 80 mg./kg.

For the molecule `CCC(O)(c1ccc(F)cc1)c1ccccc1OCc1ccccc1` (stereo not shown) [A, 1-(4-fluorophenyl)-1-(2-benzyloxyphenyl)-propane-1-ol], in the data set on hexabarbital oxidase, the “Hexabarbital sleeping time in %-age of the control, 1 h” value is reported as 95 ± 20.2 % of the control and the “Hexabarbital sleeping time in %-age of the control, 24 h” value was 46 ± 3.5 % of the control. Also, the “relative weight of liver (g./100 g. of body weight), % of the control” value in [1] is listed as 109 ± 2.5%. For the same molecule, the “microsomal protein (mg./g. of liver), % of the control” value in data set [2] amounted to 109 ± 3.8%. The “cytochrome b-5 (nmoles/g. of liver), % of the control” value in the data set on cytochrome b-5 amounted to 124 ± 3.8%. In the data set with cytochrome P-450, the “cytochrome P-450 (nmoles/g. of liver), % of the control” value came to 170 ± 8.8%. The “C(P-450) reductase (nmoles/g. of liver/min.), % of the control” value in data set [3] was determined as 155 ± 6.9%. Further, the “aniline hydroxylase (nmoles/g. of liver/min.), % of the control” value in the data set with aniline hydroxylase turned out to be 168 ± 8.9%. Further, the “aminopyrine demethylase (nmoles/g. of liver/min.), % of the control” value in the data set on aminopyrine demethylase turned out to be 150 ± 11.1%. Moreover, the “Dead animals (%)” value with Hann.-Wistar rats is on record as “.phi”.

Turning to `CCC(O)(c1cc(C)ccc1C)c1ccccc1OCc1ccccc1` (stereo not shown) [B, 1-(2,5-dimethylphenyl)-1-(2-benzyloxyphenyl)-propane-1-ol], in the data set with hexabarbital oxidase, the “Hexabarbital sleeping time in %-age of the control, 1 h” value is 119 ± 7.7 % of the control and the “Hexabarbital sleeping time in %-age of the control, 24 h” value was 58 ± 8.0 % of the control. In the data set with Hann.-Wistar rats, the “Dead animals (%)” value is listed as “.phi”.

`CCN(CC)C(=O)COc1ccc(C(O)(CC)c2cccc(C(F)(F)F)c2)cc1` (stereo not shown) [C, 1-(3-trifluoromethylphenyl)-1-[4-(diethylcarbamoylmethoxy)-phenyl]-propane-1-ol]: in the data set with hexabarbital oxidase, the “Hexabarbital sleeping time in %-age of the control, 1 h” value is reported as 170 ± 10.0 % of the control and the “Hexabarbital sleeping time in %-age of the control, 24 h” value is 44 ± 2.0 % of the control. In addition, in the data set on Hann.-Wistar rats, the “Dead animals (%)” value is “.phi”.

Take `CCN(CC)C(=O)COc1ccccc1C(O)(CC)c1cccc(Cl)c1` (stereo not shown) [Compound D, 1-(3-chlorophenyl)-1-[2-(diethylcarbamoylmethoxy)-phenyl]-propane-1-ol]: in the data set with hexabarbital oxidase, the “Hexabarbital sleeping time in %-age of the control, 1 h” value was 139 ± 14.4 % of the control and the “Hexabarbital sleeping time in %-age of the control, 24 h” value is 50 ± 3.0 % of the control. In addition, the “relative weight of liver (g./100 g. of body weight), % of the control” value in [1] was found to be 107 ± 4.4%. In addition, the “microsomal protein (mg./g. of liver), % of the control” value in data set [2] came to 120 ± 6.7%. Moreover, the “cytochrome b-5 (nmoles/g. of liver), % of the control” value in the data set with cytochrome b-5 is given as 122 ± 6.3%. In addition, in the data set on cytochrome P-450, the “cytochrome P-450 (nmoles/g. of liver), % of the control” value worked out at 199 ± 17.7%. Moreover, the “C(P-450) reductase (nmoles/g. of liver/min.), % of the control” value in data set [3] was determined as 144 ± 11.9%. The “aniline hydroxylase (nmoles/g. of liver/min.), % of the control” value with aniline hydroxylase came out at 189 ± 12.3%. Besides, the “aminopyrine demethylase (nmoles/g. of liver/min.), % of the control” value in the data set with aminopyrine demethylase came to 129 ± 6.0%. Moreover, the “Dead animals (%)” value in the data set with Hann.-Wistar rats was “.phi”.

Consider `CCOC(=O)COc1ccccc1C(O)(CC)c1cccc(Cl)c1` (stereo not shown) [E, 1-(3-chlorophenyl)-1-[2-(ethoxycarbonylmethoxy)-phenyl]propane-1-ol], for which, in the data set with hexabarbital oxidase, the “Hexabarbital sleeping time in %-age of the control, 1 h” value is 117 ± 1.1 % of the control and the “Hexabarbital sleeping time in %-age of the control, 24 h” value was 58 ± 2.4 % of the control. Besides, in the data set on Hann.-Wistar rats, the “Dead animals (%)” value is reported as “.phi”.

Broadly, the LD50 is the dose expected to kill half of the subjects tested. The low end stands for a more toxic substance, the high end for a less toxic substance. As to `CCC1(c2ccccc2)C(=O)NC(=O)NC1=O` [phenobarbital, reference compound], in the data set on hexabarbital oxidase, the “Hexabarbital sleeping time in %-age of the control, 1 h” value is on record as 250 ± 15.8 % of the control and the “Hexabarbital sleeping time in %-age of the control, 24 h” value is listed as 60 ± 7.3 % of the control. In addition, the mortality at 336 h in “Acute toxicity, oral” (500 mg./kg. p.o. single dose, 14 days observation, read-out: Dead animals (%)) turned out to be 100%. The same molecule registered a median lethal dose (LD50) in “Acute toxicity, oral” (footnote to Table 3) of 254 mg/kg. Besides, the “CNS activity (anticonvulsive, muscle coordinating, sedative)” value in [4] was “significant anticonvulsive muscle coordinating and sedative effect”.
